Experimental data taken from patent publication US10030020B2, “Spirocycle compounds and methods of making and using same” (Abide Therapeutics, Inc., priority 2016, dated 2018).

Experiments:
MAGL [1] = target: T1, MAGL (Mus musculus (Mouse), UniProt O35678); assay: In vitro competitive activity-based protein profiling (mouse brain membrane fraction or cell lysates), MAGL band; type: biochemical; conditions: mouse proteome; for IC50: competitive ABPP; for inhibition at 1 µM: read-out: MAGL % Inh 1 μM (mouse)
Experimental: In Vitro Competitive Activity-Based Protein Profiling.
Proteomes (mouse brain membrane fraction or cell lysates) (50 μL, 1.0 mg/mL total protein concentration) were preincubated with varying concentrations of inhibitors at 37° C. After 30 min, FP—Rh (1.0 μL, 50 μM in DMSO) was added and the mixture was incubated for another 30 min at 37° C. Reactions were quenched with SDS loading buffer (50 μL-4×) and run on SDS-PAGE.

ABHD6 [2] = target: T2, ABHD6 (Mus musculus (Mouse), UniProt Q8R2Y0); assay: In vitro competitive activity-based protein profiling (mouse brain membrane fraction or cell lysates), ABHD6 band; type: biochemical; conditions: mouse proteome; for IC50: competitive ABPP; for inhibition at 1 µM: read-out: ABHD6 % Inh 1 μM (mouse)
Procedure, shortened: (§1)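 Residual hydrolase activity was measured as gel band fluorescence after FP-Rh labelling (30 min, 37° C) of proteomes pretreated 30 min at 37° C with inhibitor.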

FAAH [3] = target: T3, FAAH (Mus musculus (Mouse), UniProt O08914); assay: In vitro competitive activity-based protein profiling (mouse brain membrane fraction or cell lysates), FAAH band; type: biochemical; conditions: mouse proteome; for IC50: competitive ABPP; for inhibition at 1 µM: read-out: FAAH % Inh 1 μM (mouse)
Procedure, shortened: as §1

MAGL [4] = target: T1, MAGL; assay: Mouse brain proteomes from inhibitor treated mice (oral gavage, sacrificed 4 h after administration, ABPP analysis); type: in vivo, mouse (C57Bl/6J); conditions: 5 mg/kg oral gavage
Experimental: (§2) Preparation of Mouse Brain Proteomes from Inhibitor Treated Mice.
(§3) Inhibitors were administered to wild-type C57Bl/6J by oral gavage in a vehicle, e.g. PEG400/Ethanol/PBS (7/2/1). Each animal was sacrificed 4 h following administration and brain proteomes were prepared and analyzed according to previously established methods (See Niphakis, M. J., et al. (2011) ACS Chem. Neurosci. and Long, J. Z., et al. Nat. Chem. Biol. 5:37-44). Data from this assay is shown in Table 2 (% inhibition at 5 mg/kg).

FAAH [5] = target: T3, FAAH; assay: Mouse brain proteomes from inhibitor treated mice (oral gavage, sacrificed 4 h after administration, ABPP analysis), FAAH; type: in vivo, mouse (C57Bl/6J); conditions: 5 mg/kg oral gavage
Experimental: as §2, §3

ABHD6 [6] = target: T2, ABHD6; assay: Mouse brain proteomes from inhibitor treated mice (oral gavage, sacrificed 4 h after administration, ABPP analysis), ABHD6; type: in vivo, mouse (C57Bl/6J); conditions: 5 mg/kg oral gavage
Experimental: as §2, §3

T1 sequence (O35678 whole entry): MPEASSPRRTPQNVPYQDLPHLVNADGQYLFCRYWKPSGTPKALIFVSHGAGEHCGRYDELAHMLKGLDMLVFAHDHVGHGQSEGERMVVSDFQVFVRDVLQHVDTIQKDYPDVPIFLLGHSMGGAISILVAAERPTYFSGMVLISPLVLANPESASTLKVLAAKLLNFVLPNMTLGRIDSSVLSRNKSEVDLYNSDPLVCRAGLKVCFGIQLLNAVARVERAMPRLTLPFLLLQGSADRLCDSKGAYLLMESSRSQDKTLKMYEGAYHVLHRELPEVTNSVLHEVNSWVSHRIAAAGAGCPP
T2 sequence (Q8R2Y0 whole entry): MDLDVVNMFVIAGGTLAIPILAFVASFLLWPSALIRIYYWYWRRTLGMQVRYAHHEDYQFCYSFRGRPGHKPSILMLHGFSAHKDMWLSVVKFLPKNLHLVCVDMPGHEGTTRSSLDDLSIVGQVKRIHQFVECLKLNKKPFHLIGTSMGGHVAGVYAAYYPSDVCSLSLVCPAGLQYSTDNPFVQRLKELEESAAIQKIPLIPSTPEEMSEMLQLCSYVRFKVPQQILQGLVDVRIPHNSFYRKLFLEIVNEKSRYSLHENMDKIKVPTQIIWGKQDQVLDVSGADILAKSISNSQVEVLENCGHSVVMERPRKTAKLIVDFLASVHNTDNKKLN
T3 sequence (O08914 whole entry): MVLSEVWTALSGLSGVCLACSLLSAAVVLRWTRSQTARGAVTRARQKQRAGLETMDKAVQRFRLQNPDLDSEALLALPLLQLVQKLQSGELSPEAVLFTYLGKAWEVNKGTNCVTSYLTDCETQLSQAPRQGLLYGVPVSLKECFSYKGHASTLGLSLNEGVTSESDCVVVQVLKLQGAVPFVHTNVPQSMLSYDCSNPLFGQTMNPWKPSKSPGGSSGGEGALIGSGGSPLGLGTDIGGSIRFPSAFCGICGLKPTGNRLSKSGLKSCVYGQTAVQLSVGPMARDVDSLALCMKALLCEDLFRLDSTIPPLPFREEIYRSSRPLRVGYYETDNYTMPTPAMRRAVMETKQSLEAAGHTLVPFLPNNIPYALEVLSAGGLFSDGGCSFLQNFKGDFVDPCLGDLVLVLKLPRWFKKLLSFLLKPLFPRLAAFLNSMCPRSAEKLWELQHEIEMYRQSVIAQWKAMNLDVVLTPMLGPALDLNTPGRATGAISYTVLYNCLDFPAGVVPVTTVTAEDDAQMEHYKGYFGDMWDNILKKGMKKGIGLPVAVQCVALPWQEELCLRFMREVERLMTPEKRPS

Row | Structure (SMILES) | IC50 (MAGL [1]) [nM] | IC50 (ABHD6 [2]) [nM] | IC50 (FAAH [3]) [nM] | MAGL % Inh 5 mg/kg (mouse) (MAGL [4]) | FAAH % Inh 5 mg/kg (mouse) (FAAH [5]) | ABHD6 % Inh 5 mg/kg (mouse) (ABHD6 [6]) | inhibition at 1 µM (MAGL [1]) [%] | inhibition at 1 µM (ABHD6 [2]) [%] | inhibition at 1 µM (FAAH [3]) [%]
1 | COc1ccc(F)cc1CN1CCCC12CCN(C(=O)OC(C(F)(F)F)C(F)(F)F)CC2 [Example 8, 1,1,1,3,3,3-Hexafluoropropan-2-yl 1-(5-fluoro-2-methoxybenzyl)-1,8-diazaspiro[4.5]decane-8-carboxylate] | < 100 | > 1000 | > 1000 | ### (### is ≥75%) | ## (## is equal to or greater than 25% but less than 75%) | ## (## is equal to or greater than 25% but less than 75%) | – | – | –
2 | COc1cc(Cl)ccc1CN1CCCC12CCN(C(=O)OC(C(F)(F)F)C(F)(F)F)CC2 [Example 9, 1,1,1,3,3,3-Hexafluoropropan-2-yl 1-(4-chloro-2-methoxybenzyl)-1,8-diazaspiro[4.5]decane-8-carboxylate] | < 100 | > 1000 | > 1000 | ### (### is ≥75%) | # (# is <25%) | # (# is <25%) | – | – | –
3 | COc1c(Cl)cccc1CN1CCCC12CCN(C(=O)OC(C(F)(F)F)C(F)(F)F)CC2 [Example 10, 1,1,1,3,3,3-Hexafluoropropan-2-yl 1-(3-chloro-2-methoxybenzyl)-1,8-diazaspiro[4.5]decane-8-carboxylate] | < 100 | > 1000 | > 1000 | ### (### is ≥75%) | ## (## is equal to or greater than 25% but less than 75%) | # (# is <25%) | – | – | –
4 | O=C(OC(C(F)(F)F)C(F)(F)F)N1CCC2(CCN(Cc3ccc(Cl)cc3N3CCCC3)C2)CC1 [Example 17, 1,1,1,3,3,3-Hexafluoropropan-2-yl 2-(4-chloro-2-(pyrrolidin-1-yl)benzyl)-2,8-diazaspiro[4.5]decane-8-carboxylate] | < 100 | > 1000 | > 1000 | ## (## is equal to or greater than 25% but less than 75%) | # (# is <25%) | # (# is <25%) | > 75 | ≥ 75 | < 25
5 | O=C(OC(C(F)(F)F)C(F)(F)F)N1CCC2(CCN(Cc3c(N4CC5COCC5C4)cccc3C(F)(F)F)C2)CC1 (stereo not drawn) [Example 18, 1,1,1,3,3,3-Hexafluoropropan-2-yl 2-(2-(tetrahydro-1H-furo[3,4-c]pyrrol-5(3H)-yl)-6-(trifluoromethyl)benzyl)-2,8-diazaspiro[4.5]decane-8-carboxylate] | < 100 | > 1000 | > 1000 | ## (## is equal to or greater than 25% but less than 75%) | # (# is <25%) | # (# is <25%) | > 75 | 25 to 75 | < 25
6 | O=C(OC(C(F)(F)F)C(F)(F)F)N1CCC2(CCCN2Cc2ccc(Cl)cc2N2CCN(CCF)CC2)CC1 [Example 19, 1,1,1,3,3,3-Hexafluoropropan-2-yl 1-(4-chloro-2-(4-(2-fluoroethyl)piperazin-1-yl)benzyl)-1,8-diazaspiro[4.5]decane-8-carboxylate] | < 100 | > 1000 | > 1000 | ## (## is equal to or greater than 25% but less than 75%) | # (# is <25%) | # (# is <25%) | – | – | –
7 | O=C(OC(C(F)(F)F)C(F)(F)F)N1CCC2(CCN(Cc3ccc(Cl)cc3N3CCOCC3)C2)CC1 [Example 21, 1,1,1,3,3,3-Hexafluoropropan-2-yl 2-(4-chloro-2-morpholinobenzyl)-2,8-diazaspiro[4.5]decane-8-carboxylate] | < 100 | 100 to 1000 | > 1000 | ### (### is ≥75%) | # (# is <25%) | ## (## is equal to or greater than 25% but less than 75%) | > 75 | ≥ 75 | < 25
8 | O=C(OC(C(F)(F)F)C(F)(F)F)N1CCC2(CCN(Cc3ccc(C(F)(F)F)cc3N3CCOCC3)C2)CC1 [Example 22, 1,1,1,3,3,3-Hexafluoropropan-2-yl 2-(2-morpholino-4-(trifluoromethyl)benzyl)-2,8-diazaspiro[4.5]decane-8-carboxylate] | < 100 | 100 to 1000 | > 1000 | ### (### is ≥75%) | # (# is <25%) | # (# is <25%) | > 75 | ≥ 75 | < 25
9 | O=C(OC(C(F)(F)F)C(F)(F)F)N1CCC2(CCN(Cc3ccc(C(F)(F)F)cc3N3CCCCC3)C2)CC1 [Example 23, 1,1,1,3,3,3-Hexafluoropropan-2-yl 2-(2-(piperidin-1-yl)-4-(trifluoromethyl)benzyl)-2,8-diazaspiro[4.5]decane-8-carboxylate] | < 100 | > 1000 | > 1000 | ## (## is equal to or greater than 25% but less than 75%) | # (# is <25%) | # (# is <25%) | > 75 | < 25 | < 25
10 | O=C(OC(C(F)(F)F)C(F)(F)F)N1CCC2(CCN(Cc3ccc(Cl)cc3N3CCCCC3)C2)CC1 [Example 24, 1,1,1,3,3,3-Hexafluoropropan-2-yl 2-(4-chloro-2-(piperidin-1-yl)benzyl)-2,8-diazaspiro[4.5]decane-8-carboxylate] | < 100 | > 1000 | > 1000 | ### (### is ≥75%) | # (# is <25%) | # (# is <25%) | > 75 | < 25 | < 25
11 | O=C(OC(C(F)(F)F)C(F)(F)F)N1CCC2(CCN(Cc3ccc(Cl)cc3N3CC4COCC4C3)C2)CC1 (stereo not drawn) [Example 25, 1,1,1,3,3,3-Hexafluoropropan-2-yl 2-(4-chloro-2-(tetrahydro-1H-furo[3,4-c]pyrrol-5(3H)-yl)benzyl)-2,8-diazaspiro[4.5]decane-8-carboxylate] | < 100 | 100 to 1000 | > 1000 | ## (## is equal to or greater than 25% but less than 75%) | # (# is <25%) | # (# is <25%) | > 75 | ≥ 75 | < 25
12 | O=C(OC(C(F)(F)F)C(F)(F)F)N1CCC2(CCN(Cc3ccc(C(F)(F)F)cc3N3CC4COCC4C3)C2)CC1 (stereo not drawn) [Example 26, 1,1,1,3,3,3-Hexafluoropropan-2-yl 2-(2-(tetrahydro-1H-furo[3,4-c]pyrrol-5(3H)-yl)-4-(trifluoromethyl)benzyl)-2,8-diazaspiro[4.5]decane-8-carboxylate] | < 100 | 100 to 1000 | > 1000 | ## (## is equal to or greater than 25% but less than 75%) | # (# is <25%) | # (# is <25%) | > 75 | ≥ 75 | < 25
13 | O=C(OC(C(F)(F)F)C(F)(F)F)N1CCC2(CCCN2Cc2cccc(OCCF)c2)CC1 [Example 27, 1,1,1,3,3,3-Hexafluoropropan-2-yl 1-(3-(2-fluoroethoxy)benzyl)-1,8-diazaspiro[4.5]decane-8-carboxylate] | 100 to 1000 | > 1000 | > 1000 | ### (### is ≥75%) | # (# is <25%) | # (# is <25%) | – | – | –
14 | O=C(OC(C(F)(F)F)C(F)(F)F)N1CCC2(CCCN2Cc2ccc(Cl)c(OCCF)c2)CC1 [Example 28, 1,1,1,3,3,3-Hexafluoropropan-2-yl 1-(4-chloro-3-(2-fluoroethoxy)benzyl)-1,8-diazaspiro[4.5]decane-8-carboxylate] | < 100 | > 1000 | > 1000 | ### (### is ≥75%) | # (# is <25%) | # (# is <25%) | – | – | –
